Measurements reported in patent publication US20060252026A1, “Cryopreservation method for bivalve oocytes” (priority 2005, published 2006).

What was measured:
[1] = test system: Eastern Oyster (Crassostrea virginica) oocytes; conditions: Me2SO or sucrose as CPA; cited from earlier work
[2] = test system: Pacific oyster (Crassostrea gigas) oocytes; experiment: Post-thaw fertilisation assay of cryopreserved oocytes; assay type: cell-based; conditions: for post-thaw fertilisation rate: Example 2.9, ten percent EG
Procedure: Cryopreservation straws (0.25 cc, IMV, France) were then loaded with the solution containing oocytes and CPA, sealed with PVC powder and laid flat on a rack. The total time at room temperature was 20 min. Loaded straws were placed into Cryogenesis freezers (Cryologic Pty Ltd, Mt Waverly, Australia) and held at 0° C. for 5 min. […] Following the hold period, the freezers were then programmed to cool at various rates (standard: 1° C. min^-1) to -35° C. at which temperature the straws were plunged into liquid nitrogen and stored. After up to 24 h storage, the straws were thawed by placing into a water bath at 28° C. […] After dilution, the thawed oocytes along with unfrozen oocytes from the same batch (controls) were fertilised using the miniaturised fertilisation assay described previously ([…] Smith, R D Roberts, A R Janke, […] Pugh, S C Webb, N G King, Aquaculture (2004) 242, 271). […] Duplicate assays were conducted on each straw and assays included a negative control where no sperm were added to check for parthenogenetic activation. […] All CPA concentrations are the final post-dilution levels. Fertilisation results from each experiment were used to determine factors to be evaluated in subsequent experiments. […] Each pool comprised oocytes from 4 to 8 oysters. […] Three new pools were selected from 11 available pools for Examples 2.4 to 2.6.

[3] = test system: Pacific oyster (Crassostrea gigas) oocytes; conditions: Example 2.7
Procedure: Approximately 2.2 million unfrozen or thawed oocytes from 8 individuals were added to 500 mL of SW and fertilised at a ratio of 100 sperm per oocyte. After a contact time of ˜12 min, the fertilised oocytes were transferred into tanks containing 150 L of SW and 1 mg L^−1 EDTA at 23° C. After 24 h, the tanks were drained through a 45-μm mesh and subsamples taken to determine the percentage of oocytes reaching D-larvae in each treatment.
The number of D-larvae was standardized for each female so that the four rearing tanks (2×cryopreserved and 2×unfrozen) all contained the same number of larvae. The larvae were resuspended in 2.5 L tanks in a continuous exchange larval rearing system and fed a mixed diet of Chaetoceros calcitrans and Isochrisis galbana (A Janke, H Kaspar, N King, S Foster, Abstracts of the World Aquaculture Society Conference, 1st-4th Mar. 2004, Hawaii, World Aquaculture Society, Louisiana State University, Baton Rouge, La., (2004), 312). Tanks were cleaned and larvae screened every second day to remove dead, abnormal or slow-growing larvae. Competent larvae were induced to metamorphose by bath application of 10^−4 M epinephrine (S L Coon, D B Bonar, Journal of Experimental Marine Biology and Ecology, (1985), 94, 211) for 3 to 5 h. […] The number of D-larvae in each treatment that developed to eyed larvae stage and spat was determined. […]

Pacific oyster oocytes [4] = conditions: Me2SO as CPA; cited from earlier work
Pacific oyster oocytes [5] = conditions: Me2SO as CPA in the presence of trehalose; cited from earlier work

For `OC[C@H]1O[C@@](CO)(O[C@H]2O[C@H](CO)[C@@H](O)[C@H](O)[C@H]2O)[C@@H](O)[C@@H]1O` [sucrose], the “fertilisation of oocytes after cryopreservation” value [1] is listed as “none of the oocytes were able to be fertilised” and the “oocytes staining as live after cryopreservation” value [1] is listed as 7%.

For `OCCO` [EG, ethylene glycol], the post-thaw fertilisation ([2]; Example 2.10, 10% EG in MQ, thawed in water bath at 3° C.) was 79%, the post-thaw fertilisation ([2]; Example 2.10, 10% EG in MQ, thawed in water bath at 28° C.) was 71% and the post-thaw fertilisation ([2]; Example 2.10, 10% EG in MQ, thawed in water bath at 60° C.) was 61%. For the same compound, the post-thaw fertilisation ([2]; Example 2.10, 10% EG in MQ, thawed in water bath at 90° C.) was 52%, the oocyte fertilisation post-thaw ([2]; Example 2.1, 100% EG (so in the source) in MQ with 0.85% w/v PVP, standard freezing/thawing) was “Highest fertilisation rates” and the “oocyte fertilisation post-thaw, effect of holding temperature” value ([2]; Example 2.5, 10% EG in MQ, holding for 5 min at either −10 or −12° C.) was “best results”. For the same compound, the “oocyte fertilisation post-thaw, effect of freezing rate” value ([2]; Example 2.6, 10% EG in MQ, slowest post-hold cooling rate (0.3° C. min−1)) was “best results”, the oocyte fertilisation post-thaw ([2]; Example 2.7, 10% EG in MQ, no PVP, −10° C. hold, 0.3° C. min−1 to −35° C., mean±se) was 52.1±1.2% and the post-thaw fertilisation ([2]; Example 2.8, 10% EG in MQ, plunging at −25° C.) was 5%. It also gave a post-thaw fertilisation ([2]; Example 2.8, 10% EG in MQ, plunging at −35° C.) of 72%, a post-thaw fertilisation ([2]; Example 2.8, 10% EG in MQ, plunging at −45° C.) of 76% and a post-thaw fertilisation rate ([2]; held at −16° C. for 5 min) of 31%. The post-thaw fertilisation rate ([2]; held at −20° C. for 5 min) was 3%, the “percentage of fertilised oocytes developing to D-larvae, fresh versus cryopreserved” value ([3]; P=0.126) was “no significant difference” and the “proportion of larvae developing to eyed larvae or spat, fresh versus cryopreserved” value ([3]; P=0.516 and 0.418) was “no difference”.

For `OC[C@H]1O[C@H](O[C@H]2O[C@H](CO)[C@@H](O)[C@H](O)[C@H]2O)[C@H](O)[C@@H](O)[C@@H]1O` [trehalose], the “effect on oocyte fertilisation post-thaw” value ([2]; Example 2.2, trehalose above 0.1 M added to 10% EG in MQ) was “significant reduction in fertilisation”.

In the case of `C[S+](C)[O-]` [Me2SO, dimethyl sulfoxide], the oocyte fertilisation post-thaw ([2]; Example 2.1, 15% Me2SO in MQ with 0.85% w/v PVP, standard freezing/thawing) is given as “Highest fertilisation rates”, the “fertilisation of oocytes after cryopreservation” value [1] is given as “none of the oocytes were able to be fertilised” and the “oocytes staining as live after cryopreservation” value [1] is given as 7%. The “outcome of cryopreservation attempt” value (Pacific oyster oocytes [4]) was “entirely unsuccessful”, the “fertilisation achieved with the thawed oocytes” value (Pacific oyster oocytes [5]) was “less than 0.5%” and the “thawed oocytes developing to D-larvae” value (Pacific oyster oocytes [5]) was “less than 0.005%”.

For `CO` [methanol], the oocyte fertilisation post-thaw ([2]; Example 2.1, methanol 2.5, 5, 10% v/v in MQ with 0.85% w/v PVP, standard freezing/thawing) was “No oocytes were fertilised”.
